Source: patent US20050277645A1, “Sleep inducing compounds and methods relating thereto” (Neurocrine Biosciences, Inc., priority 2004, published 2005)

The compounds below were run against T1, human H1 receptor (Homo sapiens, UniProt P35367) (assay: Human histamine H1 receptor binding assay). Conditions: competition with 1.5 nM [pyridinyl-5-3H]Pyrilamine, crude membranes of CHO cells transfected with human H1 receptor; Ki from IC50 by Cheng-Prusoff.
T1 construct: expressed in transfected cells; host or cells: CHO cells (crude membranes)
T1 sequence (P35367 whole entry): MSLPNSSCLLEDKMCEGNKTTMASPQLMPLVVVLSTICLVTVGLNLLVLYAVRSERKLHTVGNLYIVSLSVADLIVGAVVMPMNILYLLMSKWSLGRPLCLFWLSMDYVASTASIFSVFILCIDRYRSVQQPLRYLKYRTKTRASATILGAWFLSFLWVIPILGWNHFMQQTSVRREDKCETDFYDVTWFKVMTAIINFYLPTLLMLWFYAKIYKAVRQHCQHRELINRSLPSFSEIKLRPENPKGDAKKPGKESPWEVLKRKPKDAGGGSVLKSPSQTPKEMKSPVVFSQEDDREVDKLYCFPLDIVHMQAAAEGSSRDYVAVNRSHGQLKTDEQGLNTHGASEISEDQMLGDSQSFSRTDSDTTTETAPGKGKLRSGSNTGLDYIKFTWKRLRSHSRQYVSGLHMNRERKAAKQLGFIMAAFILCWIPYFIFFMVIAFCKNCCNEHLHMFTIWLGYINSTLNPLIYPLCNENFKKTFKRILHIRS
Experimental: Compounds of the present invention may be evaluated for binding to the histamine H1 receptor by a standard binding assay. […] Non-specific binding is determined in the presence of excess (1 μM) doxepin. Bound and free ligand are separated by rapid vacuum filtration using a Packard 96-well cell harvester onto UniFilter GF/C filter plates (PerkinElmer) that has been pretreated with 1% polyethyleneimine. The filter plates are then washed with 600 μl phosphate buffered saline containing 0.01% (v/v) Triton-X100. Bound radioligand is determined by scintillation counting using a TopCount-NXT (Packard). Binding data is analyzed by nonlinear, least-squares curve fitting algorithms using GraphPad Prism (GraphPad Software, Inc. San Diego, Calif.) or ActivityBase (IDBS, Guildford, Surrey, UK).

| SMILES | Ki [µM] |
| --- | --- |
| CC(C1=C(CCN(C)C)Cc2ccccc21)c1ccncn1 (stereo not shown) [4-2] | ≤ 0.25 |
| CN(C)CCC1=C(C(C)(C)c2cnccn2)c2ccccc2C1 [4-12] | ≤ 0.25 |
| CCOc1nccnc1CC1=C(CCN(C)C)Cc2ccccc21 [4-16] | ≤ 0.25 |
| CCCOc1cncc(CC2=C(CCN(C)C)Cc3ccccc32)n1 [4-17] | ≤ 0.25 |
| COc1nccnc1C(C)C1=C(CCN(C)C)Cc2cc(Cl)ccc21 (stereo not shown) [4-20] | ≤ 0.25 |
| COc1nccnc1[C@@H](C)C1=C(CCN(C)C)Cc2cc(Cl)ccc21 [4-22] | ≤ 0.25 |
| COc1nccnc1[C@H](C)C1=C(CCN(C)C)Cc2cc(Cl)ccc21 [4-23] | ≤ 0.25 |
| Cc1ccc2c(c1)CC(CCN(C)C)=C2Cc1cccnn1 [4-25] | ≤ 0.25 |
| CCOc1nccnc1C(C)C1=C(CCN(C)C)Cc2cc(F)ccc21 (stereo not shown) [4-38] | ≤ 0.25 |
| CCC(C1=C(CCN(C)C)Cc2cc(F)ccc21)c1nccnc1OC (stereo not shown) [4-39] | ≤ 0.25 |
| COc1ccc2c(c1)CC(CCN(C)C)=C2Cc1cccnn1 [4-42] | ≤ 0.25 |
| CCOCC(C)C1=C(CCN(C)C)Cc2ccccc21 (stereo not shown) [6-1, {2-[3-(2-ethoxy-1-methyl-ethyl)-1H-inden-2-yl]-ethyl}-dimethyl-amine] | ≤ 0.25 |
| COCC(C)C1=C(CCN(C)C)Cc2ccccc21 (stereo not shown) [6-2] | ≤ 0.25 |
| CC(C(=O)OC(C)(C)C)C1=C(CCN(C)C)Cc2ccccc21 (stereo not shown) [7-1, 2-[2-(2-dimethylamino-ethyl)-3H-inden-1-yl]-propionic acid tert-butyl ester] | ≤ 0.25 |
| COC(=O)C(C)C1=C(CCN(C)C)Cc2ccccc21 (stereo not shown) [7-3] | ≤ 0.25 |
| Cc1nnc(C(C)C2=C(CCN(C)C)Cc3ccccc32)o1 (stereo not shown) [8-1, dimethyl-(2-{3-[1-(5-methyl-[1,3,4]oxadiazol-2-yl)-ethyl]-1H-inden-2-yl}-ethyl)-amine] | ≤ 0.25 |
| CC(C1=C(CCN(C)C)Cc2ccccc21)c1nnc(-c2ccccc2)o1 (stereo not shown) [8-2] | ≤ 0.25 |

Now from value to compound:

| Ki [µM] | SMILES |
| --- | --- |
| ≤ 0.25 | CC(C1=C(CCN(C)C)Cc2cc(Cl)ccc21)c1nccs1 (single isomer, unassigned) [23-2, {2-[6-chloro-3-(1-thiazol-2-yl-ethyl)-1H-inden-2-yl]-ethyl}-dimethyl-amine] |
| ≤ 0.25 | COc1ccc2c(c1)C(C(C)c1nccs1)=C(CCN(C)C)C2 (single isomer, unassigned) [25-2, {2-[5-methoxy-3-(1-thiazol-2-yl-ethyl)-1H-inden-2-yl]-ethyl}-dimethyl-amine] |
| ≤ 0.25 | CC(C1=C(CCN(C)C)Cc2ccccc21)c1ncc(-c2ccccc2)o1 (stereo not shown) [9-1, dimethyl-(2-{3-[1-(5-phenyl-oxazol-2-yl)-ethyl]-1H-inden-2-yl}-ethyl)-amine] |
| ≤ 0.25 | CC(C1=C(CCN(C)C)Cc2ccccc21)c1ncc(-c2ccccc2)s1 (stereo not shown) [10-1, dimethyl-(2-{3-[1-(5-phenyl-thiazol-2-yl)-ethyl]-1H-inden-2-yl}-ethyl)-amine] |
| ≤ 0.25 | Cc1cnc(C(C)C2=C(CCN(C)C)Cc3ccccc32)s1 (stereo not shown) [10-2, dimethyl-(2-{3-[1-(5-methyl-thiazol-2-yl)-ethyl]-1H-inden-2-yl}-ethyl)-amine] |
| ≤ 0.25 | Cc1cnc(C(C)C2=C(CCN(C)C)Cc3ccccc32)o1 (stereo not shown) [11-1] |
| ≤ 0.25 | CC1CN=C(C(C)C2=C(CCN(C)C)Cc3ccccc32)O1 (stereo not shown) [12-1, dimethyl-(2-{3-[1-(5-methyl-4,5-dihydro-oxazol-2-yl)-ethyl]-1H-inden-2-yl}-ethyl)-amine] |
| ≤ 0.25 | CC(C1=NCCO1)C1=C(CCN(C)C)Cc2ccccc21 (stereo not shown) [13-1, (2-{3-[1-(4,5-dihydro-oxazol-2-yl)-ethyl]-1H-inden-2-yl}-ethyl)-dimethyl-amine] |
| ≤ 0.25 | Cc1nnc(C(C)C2=C(CCN(C)C)Cc3ccccc32)s1 (stereo not shown) [14-1, dimethyl-(2-{3-[1-(5-methyl-[1,3,4]thiadiazol-2-yl)-ethyl]-1H-inden-2-yl}-ethyl)-amine] |
| ≤ 0.25 | CC(C1=C(CCN(C)C)Cc2ccccc21)c1nnc(-c2ccccc2)s1 (stereo not shown) [14-2] |
| ≤ 0.25 | CNCCC1=C([C@@H](C)c2cnccn2)c2ccccc2C1 [15-2, methyl-{2-[3-((R)-1-pyrazin-2-yl-ethyl)-1H-inden-2-yl]-ethyl}-amine] |
| ≤ 0.25 | CNCCC1=C(Cc2cnccn2)c2ccccc2C1 [15-4, methyl-[2-(3-pyrazin-2-ylmethyl-1H-inden-2-yl)-ethyl]-amine] |
| ≤ 0.25 | CNCCC1=C(C(C)c2cnccn2)c2ccc(C)cc2C1 (stereo not shown) [15-5] |
| ≤ 0.25 | CNCCC1=C(C(C)c2nc(C)cs2)c2ccccc2C1 (stereo not shown) [15-6] |
| ≤ 0.25 | CCN(C)CCC1=C(Cc2cnccn2)c2ccccc2C1 [16-1, ethyl-methyl-[2-(3-pyrazin-2-ylmethyl-1H-inden-2-yl)-ethyl]-amine] |
| ≤ 0.25 | CCCN(C)CCC1=C(Cc2cnccn2)c2ccccc2C1 [16-2] |
| ≤ 0.25 | CN(CCO)CCC1=C(Cc2cnccn2)c2ccccc2C1 [16-3] |
| ≤ 0.25 | CC(CC1=C(Cc2cnccn2)c2ccccc2C1)N(C)C (stereo not shown) [18-1, dimethyl-[1-methyl-2-(3-pyrazin-2-ylmethyl-1H-inden-2-yl)-ethyl]-amine] |

| Ki [µM] | SMILES |
| --- | --- |
| ≤ 0.25 | CC(CC1=C(Cc2cnccn2)c2ccccc2C1)N1CCCC1 (stereo not shown) [18-4] |
| ≤ 0.25 | CC(CC1=C(Cc2cccnn2)c2ccccc2C1)N1CCCC1 (stereo not shown) [18-5] |
| ≤ 0.25 | Fc1ccc2c(c1)CC(CCN1CCCC1)=C2Cc1cccnn1 [19-1, 3-[5-fluoro-2-(2-pyrrolidin-1-yl-ethyl)-3H-inden-1-ylmethyl]-pyridazine] |
| ≤ 0.25 | Fc1ccc2c(c1)CC(CCN1CCOCC1)=C2Cc1cccnn1 [19-2] |
| ≤ 0.25 | O[C@@H]1CCN(CCC2=C(Cc3cccnn3)c3ccc(F)cc3C2)C1 [19-3] |
| ≤ 0.25 | O[C@H]1CCN(CCC2=C(Cc3cccnn3)c3ccc(F)cc3C2)C1 [19-4] |
| ≤ 0.25 | Fc1ccc2c(c1)CC(CCN1CCC1)=C2Cc1cccnn1 [20-1, 3-[2-(2-azetidin-1-yl-ethyl)-5-fluoro-3H-inden-1-ylmethyl]-pyridazine] |
| ≤ 0.25 | COc1ccc2c(c1)CC(CCN1CCC1)=C2C(C)c1cnccn1 (stereo not shown) [21-1, 2-{1-[2-(2-azetidin-1-yl-ethyl)-5-methoxy-3H-inden-1-yl]-ethyl}-pyrazine] |
| ≤ 0.25 | COc1ccc2c(c1)CC(CCN1CCC1)=C2[C@@H](C)c1cnccn1 [21-2] |
| ≤ 0.25 | COc1ccc2c(c1)CC(CCN1CCCC1)=C2Cc1cnccn1 [21-5] |
| ≤ 0.25 | COc1ccc2c(c1)CC(CCN1CCCC1)=C2Cc1cccnn1 [21-6] |
| ≤ 0.25 | c1ccc2c(c1)CC(CCN1CCCC1)=C2Cc1cnccn1 [21-7] |
| ≤ 0.25 | c1cnnc(CC2=C(CCN3CCCC3)Cc3ccccc32)c1 [21-8] |
| ≤ 0.25 | COc1ccc2c(c1)CC(CCN1CCOCC1)=C2Cc1cnccn1 [21-9] |
| ≤ 0.25 | c1ccc2c(c1)CC(CCN1CCC1)=C2Cc1cnccn1 [21-10] |
| ≤ 0.25 | Cc1csc([C@H](C)C2=C(CCN(C)C)Cc3cc(Cl)ccc32)n1 [22-5] |
| ≤ 0.25 | CC(C#N)C1=C(CCN(C)C)Cc2cc(Cl)ccc21 (stereo not shown) [23-1, 2-[5-chloro-2-(2-dimethylamino-ethyl)-3H-inden-1-yl]-propionitrile] |
